pIC50: −log10 of the molar value.
Key:
[1] = biological target: Type IV Phosphodiesterase (PDE IV); assay: Effect on enzymatic activity of type IV phosphodiesterase (PDE IV); type: biochemical; settings: crude enzyme from cytoplasmic fraction of human monocyte-like cell strain U937; 3H-cAMP substrate, 30° C., 15 minutes; read-out: PDE IV Inhibitory Activity: IC50
Experimental: PDE IV inhibitory activity of the compounds of the present invention was examined. […] Adv.
Effect on Enzymatic Activity of Type IV Phosphodiesterase (PDE IV)
After a test compound was added, the reaction mixture was incubated at 30° C. for 15 minutes, and then added with the substrate.

| SMILES | melting point [°C] | pIC50 [1] |
| --- | --- | --- |
| CNc1nc(OCCCc2ccncc2)nc2c1ncn2Cc1ccc(OC)c(OC2CCCC2)c1 [compound 72] | 138 to 140 | 9.12 |
| COc1ccc(Cn2cnc3c(N)nc(OCCCc4ccncc4)nc32)cc1OC1CCCC1 [compound 66] | 152 to 153 | 8.85 |
| CCNc1nc(OCCCc2ccncc2)nc2c1ncn2Cc1ccc(OC)c(OC2CCCC2)c1 [compound 83] | 127 to 128 | 9.16 |
| COc1ccc(Cn2c(C)nc3cnc(OCCCc4ccncc4)nc32)cc1OC1CCCC1 [compound 56] | 115 to 117 | 8.89 |
| COc1ccc(Cn2cnc3c(OCc4cccnc4)ncnc32)cc1OC1CCCC1 [compound 2] | – | 8.05 |
| COc1ccc(Cn2cnc3cnc(OCCCc4ccncc4)nc32)cc1OC1CCOC1 (centres unmarked) [compound 55] | 128 to 130 | 8.35 |
| COc1ccc(Cn2cnc3c(N(C)C)nc(OCCCc4ccncc4)nc32)cc1OC1CCCC1 [compound 82] | 78 to 80 | 9.09 |
| COc1ccc(Cn2cnc3c(C)nc(NCc4ccncc4)nc32)cc1OC1CCCC1 [compound 84] | 137 to 138 | 8.72 |
| COc1ccc(Cn2c(C)nc3cnc(NCc4cccnc4)nc32)cc1OC1CCCC1 [compound 37] | – | 9.00 |
| COc1ccc(Cn2c(C)nc3cnc(OCc4cccnc4)nc32)cc1OC1CCCC1 [compound 36] | – | 8.59 |
| COc1ccc(Cn2cnc3cnc(NCc4cccs4)nc32)cc1OC1CCCC1 [compound 41] | 141 to 142 | 9.33 |
| COc1ccc(Cn2c(C)nc3cnc(NCc4ccc(OCC(F)(F)F)nc4)nc32)cc1OC1CCCC1 [compound 77] | 125 to 127 | 9.08 |

Next, values leading:

| melting point [°C] | pIC50 [1] | SMILES |
| --- | --- | --- |
| 157 to 158 | 7.82 | COc1ccc(Cn2c(C)nc3c(C)nc(OCc4cc[n+]([O-])cc4)nc32)cc1OC1CCCC1 [compound 102] |
| 112 to 114 | 8.96 | COc1ccc(Cn2cnc3c(N(C)C)nc(NCc4cccnc4)nc32)cc1OC1CCCC1 [compound 104] |
| 85 to 88 | 7.82 | CCNc1nc(OCCCc2cc[n+]([O-])cc2)nc2c1ncn2Cc1ccc(OC)c(OC2CCCC2)c1 [compound 122] |
| 92 to 93 | 9.70 | COc1ccc(Cn2cnc3c(N(C)C)nc(OCc4ccoc4)nc32)cc1OC1CCCC1 [compound 88] |
| 112 to 123 | 9.66 | COc1ccc(Cn2c(C)nc3c(C)nc(OCc4cc(C)nn4C)nc32)cc1OC1CCCC1 [compound 112] |
| 129 to 131 | 7.39 | CCNc1nc(Cl)nc2c1ncn2Cc1ccc(OC)c(OC2CCCC2)c1 [compound 134] |
| 134 to 135 | 7.27 | COc1ccc(Cn2cnc3ncnc(Oc4cccnc4)c32)cc1OC1CCCC1 [compound 139] |
| 164 to 166 | 7.62 | COc1ccc(Cn2c(C)nc3c(C)nc(NCc4cccnn4)nc32)cc1OC1CCCC1 [compound 113] |
| 125 to 126 | 8.77 | COc1ccc(Cn2c(C)nc3c(C)nc(OCc4ccncc4)nc32)cc1OC1CCCC1 [compound 95] |
| 143 to 145 | 7.19 | COc1ccc(Cn2cnc3ncnc(OCc4cccnc4)c32)cc1OC1CCCC1 [compound 137] |
| 116 to 117 | 9.19 | COc1ccc(Cn2c(C)nc3c(C)nc(SCc4cccnc4)nc32)cc1OC1CCCC1 [compound 119] |
| 121 to 122 | 8.42 | CCNc1nc(OCc2cccnn2)nc2c1ncn2Cc1ccc(OC)c(OC2CCCC2)c1 [compound 96, 9-[(3-cyclopentyloxy-4-methoxy)benzyl]-6-ethylamino-2-[(3-pyridazinyl)methyloxy]purine] |
| 130 to 131 | 9.36 | CCCNc1nc(OCCCc2ccncc2)nc2c1ncn2Cc1ccc(OC)c(OC2CCCC2)c1 [compound 93] |

Source: US6734187B1, “Purine derivatives and medicaments comprising the same as active ingredient” (Mitsubishi Chemical Corporation, priority 1997, dated 2004)
